Legend:
Cytochrome P450 2C9 = Cytochrome P450 2C9 (Homo sapiens, UniProt P11712); assay: Inhibition of CYP2C9 (unknown origin); format: ADME
Glucocorticoid receptor [1] = target: T1, Glucocorticoid receptor (Homo sapiens, UniProt P04150); assay: Agonist activity at glucocorticoid receptor in human A549 cells assessed as AP-1 transrepression by luciferase reporter gene assay; format: cell-based
T1 sequence (P04150 whole entry): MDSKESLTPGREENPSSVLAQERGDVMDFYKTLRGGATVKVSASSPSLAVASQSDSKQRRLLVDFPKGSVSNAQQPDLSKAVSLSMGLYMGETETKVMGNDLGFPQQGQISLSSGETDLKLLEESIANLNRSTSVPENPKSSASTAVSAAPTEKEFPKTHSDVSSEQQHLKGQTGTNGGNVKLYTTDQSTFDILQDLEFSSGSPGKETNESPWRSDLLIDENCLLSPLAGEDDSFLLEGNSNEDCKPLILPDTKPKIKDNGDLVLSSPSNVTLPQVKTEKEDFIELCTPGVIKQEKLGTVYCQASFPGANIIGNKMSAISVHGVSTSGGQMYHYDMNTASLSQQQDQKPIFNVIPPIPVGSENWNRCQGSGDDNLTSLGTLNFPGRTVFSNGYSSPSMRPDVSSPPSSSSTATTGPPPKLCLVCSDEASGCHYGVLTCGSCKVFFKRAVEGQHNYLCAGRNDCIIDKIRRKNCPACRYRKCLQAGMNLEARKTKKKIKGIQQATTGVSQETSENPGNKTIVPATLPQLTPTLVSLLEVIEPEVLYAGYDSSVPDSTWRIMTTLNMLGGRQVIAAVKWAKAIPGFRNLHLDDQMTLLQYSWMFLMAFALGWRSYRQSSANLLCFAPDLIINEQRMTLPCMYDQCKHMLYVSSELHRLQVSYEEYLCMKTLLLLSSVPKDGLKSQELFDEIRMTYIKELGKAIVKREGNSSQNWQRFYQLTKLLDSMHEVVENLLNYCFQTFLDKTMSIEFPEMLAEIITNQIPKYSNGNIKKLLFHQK

Androgen receptor = target: T2, Androgen receptor (Homo sapiens, UniProt P10275); assay: Binding affinity to androgen receptor (unknown origin)
T2 sequence (P10275 whole entry): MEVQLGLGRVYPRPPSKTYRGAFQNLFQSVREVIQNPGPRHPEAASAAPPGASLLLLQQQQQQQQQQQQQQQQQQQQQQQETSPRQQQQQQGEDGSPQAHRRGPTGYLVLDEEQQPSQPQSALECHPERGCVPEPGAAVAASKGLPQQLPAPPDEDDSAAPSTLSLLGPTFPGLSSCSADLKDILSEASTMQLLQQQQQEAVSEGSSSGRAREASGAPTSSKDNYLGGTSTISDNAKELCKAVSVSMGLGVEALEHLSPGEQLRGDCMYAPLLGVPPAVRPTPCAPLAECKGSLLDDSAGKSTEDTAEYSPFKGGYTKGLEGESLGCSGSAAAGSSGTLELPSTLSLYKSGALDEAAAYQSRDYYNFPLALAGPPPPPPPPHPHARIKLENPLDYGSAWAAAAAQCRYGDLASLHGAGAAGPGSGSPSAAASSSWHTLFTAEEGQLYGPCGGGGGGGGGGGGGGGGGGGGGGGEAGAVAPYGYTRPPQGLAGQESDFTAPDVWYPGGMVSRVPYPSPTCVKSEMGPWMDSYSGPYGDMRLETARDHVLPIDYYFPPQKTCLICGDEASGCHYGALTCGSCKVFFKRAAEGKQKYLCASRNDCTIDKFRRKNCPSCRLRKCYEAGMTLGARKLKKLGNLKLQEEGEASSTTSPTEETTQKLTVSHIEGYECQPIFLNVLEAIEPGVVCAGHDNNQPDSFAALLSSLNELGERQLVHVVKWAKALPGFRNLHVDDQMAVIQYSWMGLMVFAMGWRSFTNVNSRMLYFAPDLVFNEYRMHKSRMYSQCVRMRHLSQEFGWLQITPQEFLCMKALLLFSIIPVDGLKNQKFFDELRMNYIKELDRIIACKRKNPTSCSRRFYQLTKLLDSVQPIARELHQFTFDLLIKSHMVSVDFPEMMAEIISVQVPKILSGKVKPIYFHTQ

Cytochrome P450 3A4 = Cytochrome P450 3A4 (Homo sapiens, UniProt P08684); assay: Inhibition of CYP3A4 (unknown origin); format: ADME
Liver = assay: Metabolic stability in mouse liver microsomes assessed as compound remaining
Glucocorticoid receptor [2] = target: T1, Glucocorticoid receptor; assay: Agonist activity at glucocorticoid receptor in human A549 cells assessed as E-selectin transrepression by luciferase reporter gene assay; format: cell-based
Liver microsome [3] = assay: Metabolic stability in rat liver microsomes assessed as compound remaining
Liver microsome [4] = assay: Metabolic stability in human liver microsomes assessed as compound remaining

Cytochrome P450 3A4, sequence (P08684 whole entry): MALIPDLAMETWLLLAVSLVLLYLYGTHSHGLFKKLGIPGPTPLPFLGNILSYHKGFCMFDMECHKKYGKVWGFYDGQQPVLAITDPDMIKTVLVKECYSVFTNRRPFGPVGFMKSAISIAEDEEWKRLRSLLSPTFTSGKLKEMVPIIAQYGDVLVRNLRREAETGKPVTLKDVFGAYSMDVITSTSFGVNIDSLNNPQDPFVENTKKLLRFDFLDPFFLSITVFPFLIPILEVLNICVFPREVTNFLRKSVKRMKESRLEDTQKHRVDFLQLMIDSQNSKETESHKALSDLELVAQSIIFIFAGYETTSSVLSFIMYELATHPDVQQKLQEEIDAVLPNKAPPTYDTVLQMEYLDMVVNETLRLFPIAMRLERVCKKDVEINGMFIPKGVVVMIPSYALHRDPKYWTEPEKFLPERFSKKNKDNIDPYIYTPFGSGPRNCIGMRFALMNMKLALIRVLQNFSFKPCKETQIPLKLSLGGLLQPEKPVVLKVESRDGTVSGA
Cytochrome P450 2C9, sequence (P11712 whole entry): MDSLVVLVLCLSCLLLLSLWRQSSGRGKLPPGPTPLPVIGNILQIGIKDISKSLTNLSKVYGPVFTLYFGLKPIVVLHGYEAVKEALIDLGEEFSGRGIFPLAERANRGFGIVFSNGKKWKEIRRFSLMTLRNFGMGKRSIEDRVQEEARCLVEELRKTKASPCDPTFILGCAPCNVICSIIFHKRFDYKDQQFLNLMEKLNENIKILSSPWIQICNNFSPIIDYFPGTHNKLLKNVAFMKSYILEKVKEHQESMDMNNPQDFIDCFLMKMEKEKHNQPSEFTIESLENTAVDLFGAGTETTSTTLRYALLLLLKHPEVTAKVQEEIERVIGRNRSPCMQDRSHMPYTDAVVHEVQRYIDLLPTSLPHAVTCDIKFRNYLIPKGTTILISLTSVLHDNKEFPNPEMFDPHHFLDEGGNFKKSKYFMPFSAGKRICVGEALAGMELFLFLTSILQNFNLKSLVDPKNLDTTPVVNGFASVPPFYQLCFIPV

Row | IC50 (Cytochrome P450 2C9) [nM] | EC50 (Glucocorticoid receptor [1]) [nM] | Ki (Androgen receptor) [nM] | IC50 (Cytochrome P450 3A4) [nM] | Stability (Liver) [%] | EC50 (Glucocorticoid receptor [2]) [nM] | Stability (Liver microsome [3]) [%] | Stability (Liver microsome [4]) [%] | SMILES
1 | 1000 | 2.1 | > 50000 | 300 |  |  |  |  | CC(C)(C(=O)Nc1nncs1)[C@@H]1c2ccc(-c3ccc(C(=O)N4CCOCC4)cc3)nc2Oc2c(F)cccc21
2 | 14000 | 2.1 | > 50000 | > 40000 | 80 | 1.2 | 90 | 83 | CC(C)(C(=O)NC(N)=O)[C@@H]1c2ccc(-c3ccc(C(=O)N4CCOCC4)cc3)nc2Oc2c(F)cccc21
